Measurements from publication PMC10945332, “Precision peptide theranostics: developing N- to C-terminus optimized theranostics targeting cholecystokinin-2 receptor” (Theranostics, 2024).
Where a SMILES comes first, the peptide text is derived from it. [ ]: non-standard residue; d: D form. 1Nal = N[C@@H](Cc1cccc2ccccc12)C(=O)O; NMeNle = CCCC[C@H](NC)C(=O)O; Sar = CNCC(=O)O

What was measured:
[1] = biological target: T1, human CCK2R (Homo sapiens, UniProt P32239); experiment: Competitive binding against [177Lu]Lu-DOTA-CP04 in A431-CCK2R cells; conditions: linear peptide vs its Ga-DOTA form
T1 construct: stably transfected to over-express the human full-length CCK2R (A431-CCK2R); expressed in transfected cells
T1 sequence (P32239 1-447): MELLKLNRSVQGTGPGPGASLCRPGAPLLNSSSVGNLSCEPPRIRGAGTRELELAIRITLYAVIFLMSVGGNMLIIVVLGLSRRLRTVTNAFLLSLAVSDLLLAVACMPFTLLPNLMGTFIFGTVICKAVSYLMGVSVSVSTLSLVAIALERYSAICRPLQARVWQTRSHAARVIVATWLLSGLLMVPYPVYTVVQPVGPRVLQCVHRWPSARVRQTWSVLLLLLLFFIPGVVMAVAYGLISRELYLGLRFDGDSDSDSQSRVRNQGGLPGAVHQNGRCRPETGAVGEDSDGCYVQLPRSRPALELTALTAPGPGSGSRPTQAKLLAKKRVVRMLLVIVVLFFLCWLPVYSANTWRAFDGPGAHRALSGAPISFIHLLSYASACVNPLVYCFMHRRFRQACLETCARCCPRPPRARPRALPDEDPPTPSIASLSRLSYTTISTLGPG
Experimental: Materials and Methods: Biology […]
In Vitro CCK2R-Ligand Competitive Binding Assays
All CCK2R binding experiments were conducted using A431 (human epidermoid carcinoma) […]
cells stably transfected to over-express the human full-length CCK2R (A431-CCK2R) (gifted […]
by Dr. Elisabeth von Guggenberg, Medizinische Universität Innsbruck).[41] As a negative […]
control, A431 cells stably transfected with an empty vector were analysed simultaneously […]
(A431-EV). All A431 cells were maintained in DMEM (Gibco, Australia) media supplemented […]
with 10% foetal calf serum and 250 µg/mL G418 as described previously.[32]
The affinity of all peptides for the CCK2R was evaluated using competitive binding assays […]
Briefly, 48 hours before the experiment […]
cells were plated at a density of 300,000 cells per well in 12 well plates. On the day of the […]
experiment, linear peptides were diluted in DMEM supplemented with 1% foetal calf serum to […]
DOTA-CP04 was added to each dilution. Cells were washed twice in ice-cold binding buffer […]
(DMEM supplemented with 1% foetal calf serum) and resuspended in 1 mL of the pre-prepared […]
peptide mix before being incubated at room temperature for 1 hour. Post-incubation the media […]
was removed and kept for analysis (unbound fraction) and the cells were washed twice in ice- […]
cold PBS which was pooled with the unbound fraction. Finally, 1 M NaOH (150µL) was added […]
to the wells and allowed to incubate for 5 min before lysates were collected (bound fraction).
A small volume of lysate was kept aside to determine protein concentration using the Pierce® BCA protein assay kit (Thermo Fisher, Australia). All samples were analysed using the Perkin […]
normalised according to protein concentration. Half maximal inhibitory concentration (IC50) was determined using nonlinear regression calculated using Gr aphPad Prism Software (GraphPad Software, California, USA). […]

[2] = test system: CCK2R; set-up: method as in PMID 33826325; conditions: cited from earlier work

fold decrease in affinity for CCK2R without gallium coordinated DOTA at the N-terminus [1]: 5 fold
Compound: CCCC[C@@H](C(=O)N[C@@H](CC(=O)O)C(=O)N[C@@H](Cc1cccc2ccccc12)C(N)=O)N(C)C(=O)[C@H](Cc1c[nH]c2ccccc12)NC(=O)CN(C)C(=O)[C@H](Cc1ccc(O)cc1)NC(=O)[C@H](C)NC(=O)[C@@H](CCC(=O)O)NC(=O)[C@@H](CCC(=O)O)NC(=O)[C@@H](CCC(=O)O)NC(=O)[C@@H](CCC(=O)O)NC(=O)[C@@H](CCC(=O)O)NC(=O)[C@H](N)CCC(=O)O [GA1, [D-Glu]6-Ala-Tyr-NMeGly-Trp-NMeNle-Asp-Nal-NH2] (H-[dE][dE][dE][dE][dE][dE]AY[Sar]W[NMeNle]D[1Nal]-NH2)
affinity to the CCK2R target ([2]; previously investigated): sub-nanomolar
IC50 ([2]; previously shown, Ga-DOTA-GA1 form, read-out: binding affinity (IC50) against CCK2R): 0.05 nM
